Measured values taken from ChEMBL document CHEMBL3046207, “Synthesis of a new series of 2-(2-oxo-2H-chromen-3-yl)-5H-chromeno[4,3-b]pyridin-5-ones by two facile methods and evaluation of their antimicrobial activity” (2013).
In brackets after ≈: the same amount, converted by molar mass.

Assays:
Candida albicans = experiment: Antifungal activity against Candida albicans MTCC 227 by broth dilution method; format: functional
Aspergillus niger = experiment: Antifungal activity against Aspergillus niger MTCC 282 by broth dilution method; format: functional
Bacillus subtilis = experiment: Antibacterial activity against Bacillus subtilis MTCC 441 by broth dilution method; format: functional
Staphylococcus aureus = experiment: Antibacterial activity against Staphylococcus aureus MTCC 96 by broth dilution method; format: functional
Escherichia coli = experiment: Antibacterial activity against Escherichia coli MTCC 443 by broth dilution method; format: functional
Salmonella typhimurium = experiment: Antibacterial activity against Salmonella enterica typhimurium MTCC 98 by broth dilution method; format: functional, Salmonella enterica subsp. enterica serovar Typhimurium

Compound	MIC (Candida albicans) [µg/mL]	MIC (Aspergillus niger) [µg/mL]	MIC (Bacillus subtilis) [µg/mL]	MIC (Staphylococcus aureus) [µg/mL]	MIC (Escherichia coli) [µg/mL]	MIC (Salmonella typhimurium) [µg/mL]
O=c1oc2ccccc2cc1-c1ccc2c(=O)oc3ccccc3c2n1	1000 (≈ 2930 µM)	500 (≈ 1460 µM)	250 (≈ 732 µM)	200 (≈ 586 µM)	125 (≈ 366 µM)	200 (≈ 586 µM)
Cc1ccc2oc(=O)c3ccc(-c4cc5c(ccc6ccccc65)oc4=O)nc3c2c1	1000 (≈ 2470 µM)	500 (≈ 1230 µM)	200 (≈ 493 µM)	62.5 (≈ 154 µM)	250 (≈ 617 µM)	250 (≈ 617 µM)
Cc1cccc2c1oc(=O)c1ccc(-c3cc4ccccc4oc3=O)nc12	500 (≈ 1410 µM)	> 1000	250 (≈ 704 µM)	200 (≈ 563 µM)	200 (≈ 563 µM)	250 (≈ 704 µM)
Cc1ccc2oc(=O)c3ccc(-c4cc5ccccc5oc4=O)nc3c2c1	500 (≈ 1410 µM)	> 1000	200 (≈ 563 µM)	250 (≈ 704 µM)	125 (≈ 352 µM)	125 (≈ 352 µM)
CCn1cc(C(=O)O)c(=O)c2cc(F)c(N3CCNCC3)cc21 [NORFLOXACIN]	–	–	100 (≈ 313 µM)	10 (≈ 31.3 µM)	10 (≈ 31.3 µM)	10 (≈ 31.3 µM)
COC1=CC(=O)C[C@@H](C)[C@]12Oc1c(Cl)c(OC)cc(OC)c1C2=O [GRISEOFULVIN]	500 (≈ 1420 µM)	100 (≈ 283 µM)	–	–	–	–
COc1cccc2cc(-c3ccc4c(=O)oc5ccc(C)cc5c4n3)c(=O)oc12	1000 (≈ 2590 µM)	500 (≈ 1300 µM)	62.5 (≈ 162 µM)	100 (≈ 259 µM)	250 (≈ 649 µM)	200 (≈ 519 µM)
Cc1cccc2c1oc(=O)c1ccc(-c3cc4c(ccc5ccccc54)oc3=O)nc12	1000 (≈ 2470 µM)	> 1000	125 (≈ 308 µM)	100 (≈ 247 µM)	62.5 (≈ 154 µM)	100 (≈ 247 µM)
COc1cccc2cc(-c3ccc4c(=O)oc5ccc(Cl)cc5c4n3)c(=O)oc12	> 1000	500 (≈ 1230 µM)	62.5 (≈ 154 µM)	200 (≈ 493 µM)	200 (≈ 493 µM)	250 (≈ 616 µM)
COc1cccc2cc(-c3ccc4c(=O)oc5c(C)cccc5c4n3)c(=O)oc12	200 (≈ 519 µM)	> 1000	125 (≈ 324 µM)	250 (≈ 649 µM)	250 (≈ 649 µM)	250 (≈ 649 µM)
CC1(C)S[C@@H]2[C@H](NC(=O)[C@H](N)c3ccccc3)C(=O)N2[C@H]1C(=O)O [AMPICILLIN]	–	–	250 (≈ 715 µM)	250 (≈ 715 µM)	100 (≈ 286 µM)	100 (≈ 286 µM)
O=c1oc2ccc3ccccc3c2cc1-c1ccc2c(=O)oc3ccc(Cl)cc3c2n1	500 (≈ 1170 µM)	1000 (≈ 2350 µM)	200 (≈ 470 µM)	62.5 (≈ 147 µM)	62.5 (≈ 147 µM)	100 (≈ 235 µM)
O=c1oc2ccc3ccccc3c2cc1-c1ccc2c(=O)oc3ccccc3c2n1	250 (≈ 639 µM)	> 1000	125 (≈ 319 µM)	100 (≈ 256 µM)	250 (≈ 639 µM)	200 (≈ 511 µM)
COc1cccc2cc(-c3ccc4c(=O)oc5ccccc5c4n3)c(=O)oc12	1000 (≈ 2690 µM)	1000 (≈ 2690 µM)	200 (≈ 539 µM)	100 (≈ 269 µM)	200 (≈ 539 µM)	250 (≈ 673 µM)
NYSTATIN	100	100	–	–	–	–
O=c1oc2ccccc2cc1-c1ccc2c(=O)oc3ccc(Cl)cc3c2n1	> 1000	> 1000	200 (≈ 532 µM)	125 (≈ 333 µM)	125 (≈ 333 µM)	100 (≈ 266 µM)
